Earlier results on two compounds are cited in US10172811B2, “Topical antifungal composition for treating onychomycosis” (Polichem S.A., priority 2013, dated 2019).

Each structure is given as a SMILES string.

Series [1] relates to onychomycosis. The settings on record: topical nail formulation; 48 weeks daily treatment, 12-week follow up.
The subject of series [2] is onychomycosis. The settings on record: oral.

Regarding `Cc1cc(C2CCCCC2)n(O)c(=O)c1` [ciclopirox], in the series on onychomycosis [1], the Complete cure result is given as “about 13%” and the Responders is about 30%. Take `CN(C/C=C/C#CC(C)(C)C)Cc1cccc2ccccc12` [terbinafine]: the “Complete cure, proportion of patients” value in the series on onychomycosis [2] is 38%.
